Experimental data taken from patent USRE39088E1, “Amide compounds and use of the same” (Japan Tobacco, Inc., priority 1995, dated 2006).
Where a name gives a salt, the structure may show the parent alone.

tested on: IL-8; assay: Suppression of production of inflammatory cytokines: IL-8 in LPS-stimulated human peripheral blood monocytes (ELISA); assay type: cell-based; conditions: Homo sapiens, Monocyte, 20 h, supernatant 20 hours after LPS
Experimental: Suppression of production of inflammatory cytokines
Thirty ml of human peripheral blood added with heparin was placed on Ficol-Paque (15 ml), and centrifuged at 400 G for 40 minutes at room temperature. The obtained monocyte fraction layers were collected and washed three times with E-MEM medium. The cells were adjusted to a final concentration of 0.5×10^5 cells/800 μl with RPMI-1640 medium containing 5% bovine fetal serum (2-mercaptoethanol), and seeded in a 24 well plant by 800 μl. A test sample (100 μl) was added and 100 μl of lipopolysarcharide (LPS, 100 μg/ml) was added one hour later. The supernatant was taken at 20 hours after stimulation with LPS, and amounts of various cytokines were determined using an ELISA kit.

SMILES	IC50 [µM]
CNCCCCOc1ccc(C(=O)N[C@@H](Cc2ccccc2)C(=O)OC)c(O)c1Cl [Example 7]	8
CNCCOc1c(Cl)cc(C(=O)N[C@@H](Cc2ccccc2)C(=O)OC)c(O)c1Cl [Example 11]	0.4
CCNCCCCOc1c(Cl)cc(C(=O)N[C@@H](Cc2ccccc2)C(=O)OC)c(O)c1Cl [Example 16]	0.03
CCOC(=O)C(Cc1ccccc1)N(C)C(=O)c1cc(Cl)c(OCCCCN)c(Cl)c1O (stereo not shown) [Example 20]	29
CCOC(=O)C(Cc1ccccc1)NC(=O)c1cc(Cl)c(OCCCCNC)c(Cl)c1O (stereo not shown) [Example 21]	< 0.01
CCOC(=O)C(Cc1ccccc1)NC(=O)c1cc(Cl)c(OCCCCCCCN)c(Cl)c1O (stereo not shown) [Example 26]	0.009
CC(C)COC(=O)[C@H](Cc1ccccc1)NC(=O)c1cc(Cl)c(OCCCCN)c(Cl)c1O [Example 28]	< 0.01
CNCCCCOc1c(Cl)cc(C(=O)N[C@@H](Cc2ccccc2)C(=O)OCC(C)C)c(O)c1Cl [Example 29]	< 0.01
CC(C)(C)OC(=O)[C@H](Cc1ccccc1)NC(=O)c1cc(Cl)c(OCCCCN)c(Cl)c1O [Example 30]	0.6
CC1CCCC(C)C1OC(=O)[C@H](Cc1ccccc1)NC(=O)c1cc(Cl)c(OCCCCN)c(Cl)c1O (stereo partly shown) [Example 47]	3
NCCCCOc1c(Cl)cc(C(=O)N[C@@H](Cc2ccccc2)C(=O)OC2C3CC4CC(C3)CC2C4)c(O)c1Cl (stereo partly shown) [Example 49]	0.02
CN(C)CCCCOc1c(Cl)cc(C(=O)N[C@@H](Cc2ccccc2)C(=O)OCc2ccccc2)c(O)c1Cl [Example 55]	< 0.01
CC(OC(=O)[C@H](Cc1ccccc1)NC(=O)c1cc(Cl)c(OCCCCN)c(Cl)c1O)N1CCNCC1 (stereo partly shown) [Example 56]	4
NCCCCOc1c(Cl)cc(C(=O)N[C@@H](Cc2ccccc2)C(=O)ON=C2CCCCC2)c(O)c1Cl [Example 57]	0.05
COC(=O)[C@H](Cc1ccccc1)NC(=O)c1cc(Cl)c(OCCN2CCN(C)C(C)C2)c(Cl)c1O (stereo partly shown) [Example 63]	0.1
CCOC(=O)C(Cc1ccccc1)NC(=O)c1cc(Cl)c(OCCN2CCNCC2)c(Cl)c1O (stereo not shown) [Example 64]	0.05
CCOC(=O)C(Cc1ccccc1)NC(=O)c1cc(Cl)c(OCCCN2CCNCC2)c(Cl)c1O (stereo not shown) [Example 67]	0.05
CCOC(=O)C(Cc1ccccc1)NC(=O)c1cc(Cl)c(OCCCN2CCN(C)CC2)c(Cl)c1O (stereo not shown) [Example 68]	0.001

SMILES	IC50 [µM]
CCOC(=O)C(Cc1ccccc1)NC(=O)c1cc(Cl)c(OCCC2CCNCC2)c(Cl)c1O (stereo not shown) [Example 69]	< 0.001
CCOC(=O)C(Cc1ccccc1)NC(=O)c1cc(Cl)c(OCCC2CCN(C)CC2)c(Cl)c1O (stereo not shown) [Example 70]	0.006
CCOC(=O)C(Cc1ccccc1)NC(=O)c1cc(Br)c(OCCCCN)cc1O (stereo not shown) [Example 74]	0.07
CNCCCCOc1cc(O)c(C(=O)N[C@@H](Cc2ccccc2)C(=O)OC)cc1C [Example 76]	0.3
CNCCCCOc1c(Cl)cc(C(=O)N[C@@H](Cc2ccccc2)C(=O)OCCN(C(C)C)C(C)C)c(O)c1Cl [Example 85]	0.07
CNCCCCCc1ccc(C(=O)N[C@@H](Cc2ccccc2)C(=O)OC)c(O)c1 [Example 89]	0.6
CCOC(=O)C(Cc1ccccc1)NC(=O)c1cc(Cl)c(CCCCCN(C)C)cc1O (stereo not shown) [Example 94]	1
CCOC(=O)C(Cc1ccccc1)NC(=O)c1cc(Cl)c(CCCC2CCNCC2)c(Cl)c1O (stereo not shown) [Example 101]	0.003
CCOC(=O)C(Cc1ccccc1)NC(=O)c1cc(Cl)c(CCCN2CCC(N)CC2)c(Cl)c1O (stereo not shown) [Example 103]	0.7
CC1CN(CCOc2c(Cl)cc(C(=O)N[C@@H](Cc3ccccc3)C(=O)O)c(O)c2Cl)CCN1 (stereo partly shown) [Example 129]	2
NCCCCOc1c(Cl)cc(C(=O)N[C@@H](Cc2ccccc2)C(N)=O)c(O)c1Cl [Example 139]	4
NCCCCOc1c(Cl)cc(C(=O)N[C@@H](Cc2ccccc2)C(=O)Nc2ccc(F)cc2)c(O)c1Cl [Example 141]	3
NCCCCOc1c(Cl)cc(C(=O)N[C@@H](Cc2ccccc2)C(=O)Nc2ccccn2)c(O)c1Cl [Example 142]	0.4
Cc1noc([C@H](Cc2ccccc2)NC(=O)c2cc(Cl)c(OCCCCN)c(Cl)c2O)n1 [Example 144, N-[4-(4-Aminobutoxy)-3,5-dichloro-2-hydroxybenzoyl]-1-(3-methyl-1,2,4-oxadizaol-5-yl)-2-phenylethylamine hydrochloride]	29
COC(=O)[C@H](Cc1ccccc1)NC(=O)c1cc2cccc(OCCCCN)c2cc1O [Example 146, (2S)-3-Phenyl-2-[5-(4-aminobutoxy)-3-hydroxy-2-naphthoylamino]-propionic acid methyl ester hydrochloride]	5
CCOC(=O)[C@H](Cc1ccccc1)NC(=O)c1ccc(-c2ccc(OCCCCNC)cc2)cc1 [Example 147, N-[4-[4-(4-Methylaminobutoxy)phenyl]benzoyl]-L-phenylalanine ethyl ester hydrochloride]	2
CCOC(=O)[C@H](Cc1ccccc1)NC(=O)c1ccc2oc(SCCCNC)nc2c1 [Example 152, (2S)-2-[2-(3-Methylaminopropylsulfanyl)benzoxazole-5-carbonyl-amino]-3-phenylpropionic acid ethyl ester hydrochloride]	7

Continued, values first:

IC50 [µM]	SMILES
2	CNCCCCOc1c(Cl)cc(C(=O)N[C@@H](CC2CCCCC2)C(=O)OC)c(O)c1Cl [Example 34]
0.03	CCOC(=O)COC(=O)[C@H](Cc1ccccc1)NC(=O)c1cc(Cl)c(OCCCCN)c(Cl)c1O [Example 43]
0.2	CN1CCC(OC(=O)[C@H](Cc2ccccc2)NC(=O)c2cc(Cl)c(OCCCCN)c(Cl)c2O)CC1 [Example 48]
0.02	COC(=O)[C@H](Cc1ccccc1)NC(=O)c1cc(Cl)c(OCCN2CCN(C)CC2)c(Cl)c1O [Example 58]
0.04	CCOC(=O)C(Cc1ccccc1)NC(=O)c1cc(Cl)c(OCCCCNC)cc1O (stereo not shown) [Example 71]
0.1	CCOC(=O)C(Cc1ccccc1)NC(=O)c1cc(Cl)c(OCCCCN(C)C)cc1O (stereo not shown) [Example 72]
3	CCOC(=O)C(Cc1ccccc1)NC(=O)c1cc(C)c(OCCCCNC)c(C)c1O (stereo not shown) [Example 77]
0.2	COC(=O)[C@H](Cc1ccccc1)NC(=O)c1cc(Cl)c(OCCCCO)c(Cl)c1O [Example 87]
0.001	CNCCCCCc1c(Cl)cc(C(=O)N[C@@H](Cc2ccccc2)C(=O)OC)c(O)c1Cl [Example 91, N-[3,5-Dichloro-2-hydroxy-4-(5-methylaminopentyl)benzoyl]-L-phenylalanine methyl ester hydrochloride]
0.001	CCOC(=O)C(Cc1ccccc1)NC(=O)c1cc(Cl)c(CCCC2CCN(C)CC2)c(Cl)c1O (stereo not shown) [Example 100]
0.002	CCOC(=O)C(Cc1ccccc1)NC(=O)c1cc(Cl)c(CCCN2CCNCC2)c(Cl)c1O (stereo not shown) [Example 102]
< 0.01	CNCCCCOc1c(Cl)cc(C(=O)N[C@@H](Cc2ccccc2)C(=O)OC)c(OC(=O)COC(C)=O)c1Cl [Example 110]
< 0.01	COC(=O)[C@H](Cc1ccccc1)NC(=O)c1cc(Cl)c(OCCN2CCNC(C)C2)c(Cl)c1OC(C)=O (stereo partly shown) [Example 122]
0.01	CCOC(=O)C(Cc1ccccc1)NC(=O)c1cc(Cl)c(OCCN2CCN(C)CC2)c(Cl)c1OC(C)=O (stereo not shown) [Example 125]
0.2	CN(C)CCCCCc1c(Cl)cc(C(=O)N[C@@H](Cc2ccccc2)C(=O)O)c(O)c1Cl [Example 133]
0.2	CNCCCCNc1c(Cl)cc(C(=O)N[C@@H](Cc2ccccc2)C(=O)OC)c(O)c1Cl [Example 136, N-[3,5-Dichloro-2-hydroxy-4-(4-methylaminobutylamino)benzoyl]-L-phenylalanine methyl ester dihydrochloride]
2	CCOC(=O)C(Cc1ccccc1)NC(=O)c1cc(Cl)c(OC(=O)C2(CC)CCNCC2)cc1O (stereo not shown) [Example 156]

same assay, conditions: Monocyte, supernatant 20 hours after LPS

SMILES	IC50 [µM]
CN1CCN(CCOc2c(Cl)cc(C(=O)N[C@@H](Cc3ccccc3)C(=O)O)c(O)c2Cl)CC1 [Example 134]	0.2

same assay, conditions: supernatant 20 hours after LPS

SMILES	IC50 [µM]
CNCCCCOc1c(Cl)cc(C(=O)N[C@@H](Cc2ccccc2)C(=O)NO)c(O)c1Cl [Example 143, N-[3,5-Dichloro-2-hydroxy-4-(4-methylaminobutoxy)benzoyl]-L-phenylalanylhydroxyamide]	3

same assay, conditions: supernatant 20 hours after LPS, listed as Example No. 88, hydrochloride

IC50 [µM]	SMILES
3	CNCCCCc1ccc(C(=O)N[C@@H](Cc2ccccc2)C(=O)OC)c(O)c1 [Example 88, N-[2-Hydroxy-4-(4-methylaminobutyl)benzoyl]-L-phenylalanine methyl ester hydrochloride]

same assay, conditions: supernatant 20 hours after LPS, listed as Example No. 90

IC50 [µM]	SMILES
0.6	CNCCCCc1ccc(C(=O)N[C@@H](Cc2ccccc2)C(=O)OC)c(O)c1 [Example 90]

tested on: ALT in blood; assay: Suppression of LPS/D-galactosamine-induced hepatitis; assay type: in vivo; conditions: Mus musculus, iv; dose 10 mg/kg, tail vein, 10 minutes before LPS/D-galactosamine; ALT in blood at 6 hours, male C57BL/6 mice
Experimental: Suppression of LPS/D-galactosamine-induced hepatitis
LPS (5 μg/kg)D-galactosamine (500 mg/kg) in physiological saline was intraperitoneally injected to male C57BL/6 mice to induce hepatitis. Six hours after the injection of LPS/D-galactosamine in physiological saline, blood was taken from the mice orbital venosus plexus. Plasma was separated from the blood, and ALT in blood was determined by a biochemical analyzer. The test sample was administered from the tail vein at 10 minutes before the injection of LPS/D-galactosamine in physiological saline, and the degree of suppression was investigated. The suppression by the test sample is shown in the ratio relative to the suppression in the control group.
Suppression (%)=100-(ALT amount of group treated with test sample/ALT amount of control group)×100

SMILES	inhibition in vivo at 10 mg/kg [%]
COC(=O)[C@H](Cc1ccccc1)NC(=O)c1cc(Cl)c(OCCN2CCN[C@@H](C)C2)c(Cl)c1O [Example 61]	6
COC(=O)[C@H](Cc1ccccc1)NC(=O)c1cc(Cl)c(OCCN2CCN[C@@H](C)C2)c(Cl)c1OC(=O)c1ccccc1 [Example 123]	41
